# PMC6009982, “Diaryl ethers with carboxymethoxyphenacyl motif as potent HIV-1 reverse transcriptase inhibitors with improved solubility” (Journal of Enzyme Inhibition and Medicinal Chemistry, 2017)
# Where two headings read alike, the source gives them in different places. Marks after values point to notes of the source that are not given here.
# What was measured:
# HIV-1 RT = molecular target: T1, HIV-1 RT (Human immunodeficiency virus type 1 group M subtype B, UniProt P04585); assay: HIV RT inhibitory activity, colorimetric Reverse Transcriptase Assay kit (Roche); assay type: biochemical
# T1 construct: Because HIV-1 reverse transcriptase (RT) has a low fidelity; purchased Roche, Basel, Switzerland
# Procedure: HIV RT inhibitory activity of the new compounds was measured using the colorimetric Reverse Transcriptase Assay kit (Roche, Basel, Switzerland). […] Averaged results from at least two measurements were used to obtain an inhibition curve. IC50 values were obtained by interpolating the curve using non-linear regression.
# [1] = Aqueous solubility by weighing dried aliquots; assay type: physicochemical; details: ultrapure deionised water, room temperature, pH =7
# Procedure: Substances were dissolved in ultrapure deionised water at room temperature up to concentrations of 50 g/L. Solutions were centrifuged and their aliquots were transferred into weighed glass vials (d = 0.01 mg). The samples were dried under reduced pressure and the vials were weighed again. The solubility was calculated from mass difference divided by sample volume.
# SupT1 cells = assay: Cytotoxicity from cell numbers in non-infected SupT1 cultures; assay type: cell-based; details: concentration at which toxicity is observed in 10-fold titration series
# Procedure: (§1) CD4^+ T cells were harvested from normal donors and cultured in Roswell Park Memorial Institute medium (RPMI) supplemented with 2 mM L-glutamine (Life Technologies, Merelbeke, Belgium), 10% (v/v) heat-inactivated foetal calf serum (Hyclone, Thermo Fisher Scientific, Waltham, MA), 100 U/mL penicillin and 100 µg/mL streptomycin (Life Technologies), 20 ng/mL interleukin-2 (IL-2; specific activity 10 U/ng, Peprotech, London, UK), and with 1 µg/mL phytohemagglutinin (PHA) mitogen (Thermo Fisher Scientific), 72 h prior to infection, as described earlier. SupT1 cells were maintained at maximum 500,000 cells/mL, in Iscove’s Modified Dulbecco’s Medium (IMDM) supplemented with 2 mM L-glutamine (Life Technologies) and 10% (v/v) heat-inactivated foetal calf serum (Hyclone, Thermo Fisher Scientific, Waltham, MA), as described earlier.
# (§2) Lyophilised compound was dissolved in dimethyl sulfoxide to a concentration of 5 mM, and further diluted in cell culture medium (SupT1: IMDM and CD4^+ T cells: RPMI). Cells were incubated 2 h prior infection in appropriate medium as described above, now also supplemented with diluted compound. Subsequently, cells (SupT1: 50,000 per 96 well, CD4^+ T cells: 250,000 per 96 well) were infected with HIV (HIV NL4–3-GFP-I, an infectious virus expressing green fluorescent protein (GFP) from gfp-IRES-nef mRNA expressed from the nef locus, as described earlier. Medium was as described above, now also supplemented with diluted compound (For CD4^+ T cells, PHA was left out). Medium was refreshed after 24 h, keeping compound and supplement concentrations constant. After 72 h, cells were harvested, measured by flow cytometry for GFP expression and counted, using a MACSQuant flow cytometer (Miltenyi Biotec, Bergisch Gladbach, Germany). Infection rate measured by GFP expression was between 6 and 20%. Cell numbers were used to measure cytotoxicity (cell numbers in non-infected cultures supplemented with compound were compared to cell numbers obtained in parallel cultures without compound added: a reduction with more than 10% was considered to indicate cytotoxicity).
# First, toxicity of the compounds was determined in SupT1 cells. Since even minor toxicity affects the support of viral replication by the cell, compounds should be active well below threshold toxic concentration (i.e. concentration at which toxicity is observed in 10-fold titration series).
# [2] = test system: HIV NL4-3-GFP-I in SupT1 cells; assay: Infection assay in SupT1 cells, GFP flow cytometry; assay type: cell-based, HIV-1; details: for Antiviral activity: SupT1 cells, at 10-fold lower concentration than threshold toxic concentration
# Procedure: as §1, §2
# [3] = ref Janssen et al.[15]; cited from earlier work
# [4] = HIV-1 RT, 2 ng enzyme, at least two measurements, read-out: IC50
# [5] = thermodynamic from solid, read-out: Solubility
SMILES,IC50 (HIV-1 RT; [4]),"Solubility [1, 5]",Threshold toxicity (SupT1 cells),IC50 (HIV-1 RT),Antiviral activity [2],Solubility [1],"IC50 ([2]; Human immunodeficiency virus 1, NL43, SUP-T1, read-out: IC50 (infection rate), reference run in parallel)",Solubility [3]
N#Cc1cc(Cl)cc(Oc2cc(OCC(=O)c3ccc(OCC(=O)O)cc3)ccc2Cl)c1 [Compound 7a],1.23 ± 0.05 µM,13.1 mg/mL,5 µM,–,–,–,–,–
O=C([O-])COc1ccc(C(=O)COc2ccc(Cl)c(Oc3cc(Cl)cc(Cl)c3)c2)cc1.[K+] [Compound 7b],–,4.3 mg/mL,50 µM,6.75 ± 0.5 µM,+,–,–,–
N#Cc1cc(Cl)cc(Oc2cc(Cl)cc(OCC(=O)c3ccc(OCC(=O)[O-])cc3)c2)c1.[K+] [Compound 7c],8.3 ± 1.3 µM,–,50 µM,–,–,>50.0 mg/mL,–,–
N#Cc1cc(Cl)cc(Oc2cccc(OCC(=O)c3ccc(OCC(=O)[O-])cc3)c2)c1.[K+] [Compound 7d],9.78 ± 0.67 µM,–,50 µM,–,–,>50.0 mg/mL,–,–
Cc1cc(OCC(=O)[O-])ccc1C(=O)COc1ccc(Cl)c(Oc2cc(Cl)cc(C#N)c2)c1.[K+] [Compound 7f],4.71 ± 0.43 µM,–,>50 µM,–,+,8.9 mg/mL,–,–
Cc1cc(C(=O)COc2ccc(Cl)c(Oc3cc(Cl)cc(C#N)c3)c2)ccc1OCC(=O)[O-].[K+] [Compound 7g],0.65 ± 0.03 µM,–,50 µM,–,+,3.8 mg/mL,–,–
N#Cc1cc(Cl)cc(Oc2ccc(Cl)cc2OCC(=O)c2ccc(OCC(=O)O)cc2)c1 [Compound 8a],23.4 ± 1.6 µM,> 50 mg/mL,50 µM,–,–,–,–,–
Cc1cc(OCC(=O)[O-])ccc1C(=O)COc1cc(Cl)ccc1Oc1cc(Cl)cc(C#N)c1.[K+] [Compound 8d],4.7 ± 0.7 µM,–,50 µM,–,–,14.4 mg/mL,–,–
Cc1cc(C(=O)COc2cc(Cl)ccc2Oc2cc(Cl)cc(C#N)c2)ccc1OCC(=O)[O-].[K+] [Compound 8e],3.07 ± 0.22 µM,–,50 µM,–,+,39.9 mg/mL,–,–
N#Cc1cc(Cl)cc(Oc2cc(Cl)ccc2OCC(=O)c2ccc(Oc3ccc(OCC(=O)[O-])cc3)cc2)c1.[K+] [Compound 8f],1.27 ± 0.05 µM,–,5 µM,–,–,>50.0 mg/mL,–,–
"Cc1ccnc2c1NC(=O)c1cccnc1N2C1CC1 [NVP, nevirapine, reference compound]",–,–,50 µM,–,+,–,0.04 µM,–
"Cc1cc(/C=C/C#N)cc(C)c1Nc1ccnc(Nc2ccc(C#N)cc2)n1 [RPV, rilpivirine, reference compound]",0.32 ± 0.04 µM,–,0.5 µM,–,+,–,–,0.00002 ^b g/L
